From US10072026B2, “Crystalline form of 3-((1R,3s,5S)-3-((7-((5-methyl-1H-pyrazol-3-yl)amino)-1,6-naphthyridin-5-yl)amino)-8-azabicyclo[3.2.1]octan-8-yl)propanenitrile” (priority 2015, dated 2018)
Where two headings read alike, the source gives them in different places.

Columns and labels:
JAK2 = JAK2 (Homo sapiens (Human), UniProt O60674); test: LanthaScreen JAK biochemical assay (JAK2)
[1] = system: IL-4 induced STAT6 phosphorylation in THP-1 human monocytic cells; test: Cellular JAK potency assay, THP-1
[2] = system: IL-13 induced STAT6 phosphorylation in BEAS-2B human lung epithelial cells; test: AlphaScreen cellular JAK potency assay, BEAS-2B
JAK1 = JAK1 (Homo sapiens (Human), UniProt P23458); test: LanthaScreen JAK biochemical assay (JAK1)
[3] = IL-4 induced STAT6 phosphorylation, THP-1 cells
[4] = IL-13 induced STAT6 phosphorylation, BEAS-2B cells
[5] = Homo sapiens, THP-1, read-out: THP-1 IL4 pIC50 (converted)
[6] = Homo sapiens, BEAS-2B, read-out: BEAS2B pIC50 (converted)
[7] = THP-1 cells, IL-4 induced STAT6 phosphorylation
[8] = BEAS-2B cells, IL-13 induced STAT6 phosphorylation

JAK1, sequence (P23458 whole entry): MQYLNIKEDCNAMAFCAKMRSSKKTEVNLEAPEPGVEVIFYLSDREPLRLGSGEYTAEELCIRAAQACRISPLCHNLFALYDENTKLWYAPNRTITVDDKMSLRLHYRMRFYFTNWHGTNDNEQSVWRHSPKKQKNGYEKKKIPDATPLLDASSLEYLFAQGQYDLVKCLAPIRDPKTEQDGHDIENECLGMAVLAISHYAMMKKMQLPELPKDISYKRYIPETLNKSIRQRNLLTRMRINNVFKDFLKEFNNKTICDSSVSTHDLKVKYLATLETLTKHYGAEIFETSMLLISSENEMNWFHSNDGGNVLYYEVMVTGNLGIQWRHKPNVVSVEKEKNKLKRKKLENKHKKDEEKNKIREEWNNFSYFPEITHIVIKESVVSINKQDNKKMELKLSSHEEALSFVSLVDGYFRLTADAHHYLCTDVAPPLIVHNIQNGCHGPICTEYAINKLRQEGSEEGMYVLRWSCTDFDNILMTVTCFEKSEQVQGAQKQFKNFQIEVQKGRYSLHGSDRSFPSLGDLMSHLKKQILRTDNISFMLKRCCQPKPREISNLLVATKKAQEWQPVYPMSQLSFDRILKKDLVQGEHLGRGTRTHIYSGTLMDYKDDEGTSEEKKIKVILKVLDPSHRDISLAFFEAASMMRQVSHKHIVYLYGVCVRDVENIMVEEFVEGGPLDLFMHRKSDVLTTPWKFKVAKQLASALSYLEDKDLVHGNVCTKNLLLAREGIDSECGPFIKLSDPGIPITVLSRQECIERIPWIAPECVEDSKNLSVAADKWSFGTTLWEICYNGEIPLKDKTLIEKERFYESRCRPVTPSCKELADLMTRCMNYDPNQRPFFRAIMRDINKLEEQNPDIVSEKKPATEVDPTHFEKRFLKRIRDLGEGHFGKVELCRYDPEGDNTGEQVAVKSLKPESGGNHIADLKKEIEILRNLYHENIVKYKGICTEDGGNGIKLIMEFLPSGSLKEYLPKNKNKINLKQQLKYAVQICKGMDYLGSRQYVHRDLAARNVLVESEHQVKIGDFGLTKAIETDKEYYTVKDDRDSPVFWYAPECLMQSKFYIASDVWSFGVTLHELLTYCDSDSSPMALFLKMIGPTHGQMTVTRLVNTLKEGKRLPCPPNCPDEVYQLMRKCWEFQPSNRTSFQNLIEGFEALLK
JAK2, sequence (O60674 whole entry): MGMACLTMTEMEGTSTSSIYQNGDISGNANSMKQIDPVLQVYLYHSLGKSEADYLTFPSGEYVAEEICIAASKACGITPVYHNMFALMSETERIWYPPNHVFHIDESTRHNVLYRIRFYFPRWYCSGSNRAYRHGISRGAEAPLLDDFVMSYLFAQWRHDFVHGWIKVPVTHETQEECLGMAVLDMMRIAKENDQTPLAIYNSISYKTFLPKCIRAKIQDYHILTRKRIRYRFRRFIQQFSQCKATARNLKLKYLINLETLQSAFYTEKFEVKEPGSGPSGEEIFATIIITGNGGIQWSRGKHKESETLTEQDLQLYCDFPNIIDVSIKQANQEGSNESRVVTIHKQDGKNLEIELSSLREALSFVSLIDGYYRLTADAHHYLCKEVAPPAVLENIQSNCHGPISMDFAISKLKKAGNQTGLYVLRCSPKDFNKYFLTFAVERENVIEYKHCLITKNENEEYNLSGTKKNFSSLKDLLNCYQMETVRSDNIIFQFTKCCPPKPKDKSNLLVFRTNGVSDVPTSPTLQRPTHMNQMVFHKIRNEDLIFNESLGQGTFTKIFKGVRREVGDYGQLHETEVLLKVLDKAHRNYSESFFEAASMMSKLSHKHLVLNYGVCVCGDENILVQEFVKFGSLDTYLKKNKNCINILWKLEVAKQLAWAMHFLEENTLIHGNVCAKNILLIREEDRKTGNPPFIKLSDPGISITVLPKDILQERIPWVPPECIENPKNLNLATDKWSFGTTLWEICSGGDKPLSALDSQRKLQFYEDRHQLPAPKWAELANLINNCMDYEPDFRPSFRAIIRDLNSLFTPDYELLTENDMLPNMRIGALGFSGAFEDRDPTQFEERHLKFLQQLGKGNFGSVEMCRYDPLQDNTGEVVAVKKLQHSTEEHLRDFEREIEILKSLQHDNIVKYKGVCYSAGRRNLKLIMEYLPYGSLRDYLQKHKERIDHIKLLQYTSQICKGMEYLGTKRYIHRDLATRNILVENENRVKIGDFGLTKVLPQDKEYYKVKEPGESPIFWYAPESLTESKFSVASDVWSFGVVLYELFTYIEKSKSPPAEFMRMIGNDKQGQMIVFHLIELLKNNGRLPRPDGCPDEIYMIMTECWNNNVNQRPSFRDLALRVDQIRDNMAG

| SMILES | JAK 2 (pKi) (JAK2) | THP-1 IL4 pIC50 [1, 3] | BEAS2B pIC50 [2, 4] | JAK 1 (pKi) (JAK1) | BEAS2B pIC50 [2, 8] | further results |
| --- | --- | --- | --- | --- | --- | --- |
| Cc1cc(Nc2cc3ncccc3c(N[C@@H]3C[C@H]4CCC[C@@H](C3)N4Cc3cccnc3)n2)n[nH]1 [Example 1-47] | A (A represents a pKi value≥10 (Ki≤0.1 nM)) | A (A represents a pEC50 value≥7.5 (EC50≤32 nM)) | A (A represents a pEC50 value≥7.5 (EC50≤32 nM)) |  |  |  |
| Cc1cc(Nc2cc3ncccc3c(N[C@@H]3C[C@H]4CCC[C@@H](C3)N4C(=O)c3ccccc3)n2)n[nH]1 [Example 2-25] | A (A represents a pKi value≥10 (Ki≤0.1 nM)) | A (A represents a pEC50 value≥7.5 (EC50≤32 nM)) | A (A represents a pEC50 value≥7.5 (EC50≤32 nM)) |  |  |  |
| Cc1cc(Nc2cc3ncccc3c(N[C@@H]3C[C@H]4CCC[C@@H](C3)N4C(=O)c3cncc(C#N)c3)n2)n[nH]1 [Example 2-26] | B (B represents a pKi value between 9 and 10 (Ki between 1 nM and 0.1 nM)) |  | C (C represents a pEC50 value<6.7 (EC50>200 nM)) | B (B represents a pKi value between 9 and 10 (Ki between 1 nM and 0.1 nM)) |  |  |
| Cc1cc(Nc2cc3ncccc3c(N[C@@H]3C[C@H]4CCC[C@@H](C3)N4C(=O)c3ccnc(C#N)c3)n2)n[nH]1 [Example 2-30] | B (B represents a pKi value between 9 and 10 (Ki between 1 nM and 0.1 nM)) |  | C (C represents a pEC50 value<6.7 (EC50>200 nM)) | B (B represents a pKi value between 9 and 10 (Ki between 1 nM and 0.1 nM)) |  |  |
| Cc1cc(Nc2cc3ncccc3c(N[C@@H]3C[C@H]4CCC[C@@H](C3)N4C(=O)CCC(C)C)n2)n[nH]1 [Example 2-31] | B (B represents a pKi value between 9 and 10 (Ki between 1 nM and 0.1 nM)) |  | B (B represents a pEC50 value between 6.7 and 7.5 (EC50 between 200 nM and 32 nM)) | B (B represents a pKi value between 9 and 10 (Ki between 1 nM and 0.1 nM)) |  |  |
| CCC1(S(=O)(=O)N2[C@@H]3CCC[C@H]2C[C@H](Nc2nc(Nc4cc(C)[nH]n4)cc4ncccc24)C3)CC1 [Example 4-20] | A (A represents a pKi value≥10 (Ki≤0.1 nM)) | A (A represents a pEC50 value≥7.5 (EC50≤32 nM)) | A (A represents a pEC50 value≥7.5 (EC50≤32 nM)) |  |  |  |
| Cc1cc(Nc2cc3ncccc3c(N[C@@H]3C[C@H]4CCC[C@@H](C3)N4S(=O)(=O)N3CCC3)n2)n[nH]1 [Example 4-29] |  | A (A represents a pEC50 value≥7.5 (EC50≤32 nM)) | A (A represents a pEC50 value≥7.5 (EC50≤32 nM)) | A (A represents a pKi value≥10 (Ki≤0.1 nM)) |  |  |
| COc1ccc2c(N[C@@H]3C[C@H]4CC[C@@H](C3)N4CCCC#N)nc(Nc3cc(C)[nH]n3)cc2n1 [Example 5-2] |  | B (B represents a pEC50 value between 6.7 and 7.5 (EC50 between 200 nM and 32 nM)) | A (A represents a pEC50 value≥7.5 (EC50≤32 nM)) | B (B represents a pKi value between 9 and 10 (Ki between 1 nM and 0.1 nM)) |  |  |
| COc1ccc2c(N[C@@H]3C[C@H]4CC[C@@H](C3)N4CC(C)C)nc(Nc3cc(C)[nH]n3)cc2n1 [Example 5-4] |  | A (A represents a pEC50 value≥7.5 (EC50≤32 nM)) | A (A represents a pEC50 value≥7.5 (EC50≤32 nM)) | B (B represents a pKi value between 9 and 10 (Ki between 1 nM and 0.1 nM)) |  |  |
| Cc1cc(Nc2cc3nc(CN4CCOCC4)ccc3c(N[C@@H]3C[C@H]4CC[C@@H](C3)N4S(=O)(=O)N3CCC3)n2)n[nH]1 [Example 5-21] |  |  |  |  |  | IC50 [1, 5]: < 31.6 nM; IC50 [2, 6]: < 31.6 nM |
| Cc1cc(Nc2cc3nc(CN4CCOCC4)ccc3c(N[C@@H]3C[C@H]4CCC[C@@H](C3)N4S(=O)(=O)c3cccnc3)n2)n[nH]1 [Example 5-27] |  | A (A represents a pEC50 value≥7.5 (EC50≤32 nM)) | A (A represents a pEC50 value≥7.5 (EC50≤32 nM)) |  |  |  |
| Cc1cc(Nc2cc3nc(CN4CCOCC4)ccc3c(N[C@@H]3C[C@H]4CCC[C@@H](C3)N4S(=O)(=O)c3cncc(F)c3)n2)n[nH]1 [Example 5-30] | A (A represents a pKi value≥10 (Ki≤0.1 nM)) | A (A represents a pEC50 value≥7.5 (EC50≤32 nM)) | A (A represents a pEC50 value≥7.5 (EC50≤32 nM)) |  |  |  |
| Cc1cnc2cc(Nc3cc(C)[nH]n3)nc(N[C@@H]3C[C@H]4CCC[C@@H](C3)N4S(=O)(=O)N3CC(C#N)C3)c2c1 [Example 6-9] | A (A represents a pKi value≥10 (Ki≤0.1 nM)) |  |  |  | A (A represents a pEC50 value≥7.5 (EC50≤32 nM)) | THP-1 IL4 pIC50 [1, 7]: A (A represents a pEC50 value≥7.5 (EC50≤32 nM)) |
| COc1cnc2cc(Nc3cc(C)[nH]n3)nc(N[C@@H]3C[C@H]4CC[C@@H](C3)N4CC(C)C)c2c1 [Example 6-14] |  |  |  | B (B represents a pKi value between 9 and 10 (Ki between 1 nM and 0.1 nM)) | A (A represents a pEC50 value≥7.5 (EC50≤32 nM)) | THP-1 IL4 pIC50 [1, 7]: A (A represents a pEC50 value≥7.5 (EC50≤32 nM)) |
| COc1cnc2cc(Nc3cc(C)[nH]n3)nc(N[C@@H]3C[C@H]4CC[C@@H](C3)N4CCCF)c2c1 [Example 6-16] |  |  |  | B (B represents a pKi value between 9 and 10 (Ki between 1 nM and 0.1 nM)) | B (B represents a pEC50 value between 6.7 and 7.5 (EC50 between 200 nM and 32 nM)) | THP-1 IL4 pIC50 [1, 7]: B (B represents a pEC50 value between 6.7 and 7.5 (EC50 between 200 nM and 32 nM)) |
| COc1cnc2cc(Nc3cc(C)[nH]n3)nc(N[C@@H]3C[C@H]4CC[C@@H](C3)N4CC(F)(F)F)c2c1 [Example 6-17] |  |  |  |  |  | Ki (JAK1; read-out: JAK 1 (pKi) (converted)): 0.1 to 1 nM; IC50 [1, 5]: < 31.6 nM; IC50 [2, 6]: < 31.6 nM |
| COC(=O)c1cnc2cc(Nc3cc(C)[nH]n3)nc(N[C@@H]3C[C@H]4CC[C@@H](C3)N4CC(=O)OC(C)C)c2c1 [Example 6-41] | B (B represents a pKi value between 9 and 10 (Ki between 1 nM and 0.1 nM)) |  |  |  | B (B represents a pEC50 value between 6.7 and 7.5 (EC50 between 200 nM and 32 nM)) | THP-1 IL4 pIC50 [1, 7]: A (A represents a pEC50 value≥7.5 (EC50≤32 nM)) |
| Cc1cc(Nc2cc3ncc(S(C)(=O)=O)cc3c(N[C@@H]3C[C@H]4CC[C@@H](C3)N4Cc3ccncc3)n2)n[nH]1 [Example 6-59] | A (A represents a pKi value≥10 (Ki≤0.1 nM)) |  |  |  | C (C represents a pEC50 value<6.7 (EC50>200 nM)) |  |
| CCC(C)C(=O)N1[C@@H]2CC[C@H]1C[C@H](Nc1nc(Nc3cc(C)[nH]n3)cc3nccc(OC)c13)C2 (stereo partly drawn) [Example 7-4] |  |  |  | B (B represents a pKi value between 9 and 10 (Ki between 1 nM and 0.1 nM)) | B (B represents a pEC50 value between 6.7 and 7.5 (EC50 between 200 nM and 32 nM)) | THP-1 IL4 pIC50 [1, 7]: B (B represents a pEC50 value between 6.7 and 7.5 (EC50 between 200 nM and 32 nM)) |
| COc1ccnc2cc(Nc3cc(C)[nH]n3)nc(N[C@@H]3C[C@H]4CC[C@@H](C3)N4C(=O)C(F)F)c12 [Example 7-5] |  |  |  |  |  | Ki (JAK1): 0.1 to 1 nM; IC50 [1, 5]: 31.6 to 200 nM; IC50 [2, 6]: 31.6 to 200 nM |
| Cc1cc(Nc2nc(N[C@@H]3C[C@H]4CC[C@@H](C3)N4S(=O)(=O)c3cccnc3)c3cccnc3c2F)n[nH]1 [Example 8-4] |  |  |  | B (B represents a pKi value between 9 and 10 (Ki between 1 nM and 0.1 nM)) | B (B represents a pEC50 value between 6.7 and 7.5 (EC50 between 200 nM and 32 nM)) | THP-1 IL4 pIC50 [1, 7]: B (B represents a pEC50 value between 6.7 and 7.5 (EC50 between 200 nM and 32 nM)) |
| Cc1cc(Nc2nc(N[C@@H]3C[C@H]4CC[C@@H](C3)N4S(=O)(=O)c3cncc(F)c3)c3cccnc3c2F)n[nH]1 [Example 8-5] |  |  |  | B (B represents a pKi value between 9 and 10 (Ki between 1 nM and 0.1 nM)) | A (A represents a pEC50 value≥7.5 (EC50≤32 nM)) | THP-1 IL4 pIC50 [1, 7]: B (B represents a pEC50 value between 6.7 and 7.5 (EC50 between 200 nM and 32 nM)) |
| CCS(=O)(=O)N1[C@@H]2CCC[C@H]1C[C@H](Nc1nc(Nc3cc(C)[nH]n3)cc3ncccc13)C2 [Example 10, N^5-((1R,3s,5S)-9-(ethylsulfonyl)-9-azabicyclo[3.3.1]nonan-3-yl)-N^7-(5-methyl-1H-pyrazol-3-yl)-1,6-naphthyridine-5,7-diamine] |  |  |  |  |  | IC50 [1, 5]: < 31.6 nM; IC50 [2, 6]: < 31.6 nM |
| Cc1cc(Nc2cc3nc(CN4CCOCC4)ccc3c(N[C@@H]3C[C@H]4CC[C@@H](C3)N4CC(F)(F)F)n2)n[nH]1 [Example 15, N^7-(5-methyl-1H-pyrazol-3-yl)-2-(morpholinomethyl)-N^5-((1R,3s,5S)-8-(2,2,2-trifluoroethyl)-8-azabicyclo[3.2.1]octan-3-yl)-1,6-naphthyridine-5,7-diamine] |  |  |  |  |  | IC50 [1, 5]: < 31.6 nM; IC50 [2, 6]: < 31.6 nM |
| CNC(=O)CN1[C@@H]2CCC[C@H]1C[C@H](Nc1nc(Nc3cc(C)[nH]n3)cc3ncccc13)C2 [Example 17, N-methyl-2-((1R,3s,5S)-3-((7-((5-methyl-1H-pyrazol-3-yl)amino)-1,6-naphthyridin-5-yl)amino)-9-azabicyclo[3.3.1]nonan-9-yl)acetamide] |  |  |  |  |  | IC50 [1, 5]: 31.6 to 200 nM; IC50 [2, 6]: 31.6 to 200 nM |
